Consider two substances from patent publication USRE48461E1, “Modulation of androgen receptor expression” (Ionis Pharmaceuticals, Inc., priority 2012, dated 2021).

Oligonucleotides are written 5' to 3', each unit as a sugar letter and its base; * is a phosphorothioate linkage, no mark a phosphodiester; rarer units and linkages stand in square brackets, end groups in braces. Plain capitals give the bases only. k = constrained ethyl (cEt); d = 2'-deoxy (DNA)

Common to all, as to type: cell-based, human
Series [1] relates to prostate-specific antigen (PSA) mRNA. Nature of the series: PSA mRNA levels in LMR20 cells. The conditions noted are these: for PSA mRNA levels (% baseline value) after treatment with DHT / PSA mRNA levels (% baseline value) after treatment with R1881 / PSA mRNA levels (% baseline value) of cells without AR agonist treatment: LMR20 cells; for PSA mRNA levels (% baseline value) after treatment with DHT: DHT 10 nM 72 hrs; for PSA mRNA levels (% baseline value) after treatment with R1881: R1881 10 nM 72 hrs; for PSA mRNA levels (% baseline value) of cells without AR agonist treatment: no AR agonist. As for the experimental part:
LMR20 cells were plated at 1,500 cells per well in phenol red-free medium with CSS. […] Results are presented in Tables 43-45 as mRNA levels expressed as a percentage of the baseline values. mRNA levels may be lowered or increased after treatment.

The next series has as its system AR mRNA. The series is described as follows: AR mRNA levels in LMR20 cells (with/without DHT or R1881). The settings on record: for AR mRNA levels (% baseline value) after treatment with DHT / AR mRNA levels (% baseline value) after treatment with R1881 / AR mRNA levels (% baseline value) of cells without AR agonist treatment: LMR20 cells; for AR mRNA levels (% baseline value) after treatment with DHT: DHT 10 nM 72 hrs; for AR mRNA levels (% baseline value) after treatment with R1881: R1881 10 nM 72 hrs; for AR mRNA levels (% baseline value) of cells without AR agonist treatment: no AR agonist. As for the experimental part:
LMR20 cells were plated at 1,500 cells per well in phenol red-free medium with CSS.

The subject of another series is total AR mRNA. Nature of the series: Total (full-length) AR mRNA in C4-2B MR cells, free uptake. The conditions noted are these: 24 hrs; for Percent inhibition of full-length AR mRNA in C4-2B MR cells: free uptake. A digest of the protocol: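 Cells grown in RPMI1640 with 10% FBS received antisense oligonucleotides at 0.04, 0.20, 1.00 and 5.00 μM in the medium by free uptake, no transfection agent. After 24 hrs, total AR mRNA quantified by real-time qPCR with primer probe set RTS3559.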

With “549458 (kG*kT*kT*dG*dA*dT*dT*dT*dA*dA*dT*dG*dG*kT*kT*kG) [compound 549458]”, the “PSA mRNA levels (% baseline value) after treatment with DHT” value in series [1] (ASO 0.04 μM) is listed as 93 % baseline value; in series [1] (ASO 0.20 μM), 71 % baseline value; in series [1] (ASO 1.0 μM), 47 % baseline value; in series [1] (ASO 5.0 μM) it was 47 % baseline value. The “PSA mRNA levels (% baseline value) after treatment with R1881” value in series [1] (ASO 0.04 μM) was 93 % baseline value; in series [1] (ASO 0.20 μM), 67 % baseline value; in series [1] (ASO 1.0 μM), 50 % baseline value; in series [1] (ASO 5.0 μM), 44 % baseline value. The “PSA mRNA levels (% baseline value) of cells without AR agonist treatment” value is 135 % baseline value in series [1] (ASO 0.04 μM), 85 % baseline value in series [1] (ASO 0.20 μM), 50 % baseline value in series [1] (ASO 1.0 μM) and 72 % baseline value in series [1] (ASO 5.0 μM). Also, the “AR mRNA levels (% baseline value) after treatment with DHT” value turned out to be 91 % baseline value in the series with AR mRNA (ASO 0.04 μM), 66 % baseline value in the series with AR mRNA (ASO 0.20 μM), 34 % baseline value in the series with AR mRNA (ASO 1.0 μM) and 31 % baseline value with AR mRNA (ASO 5.0 μM). Also, the “AR mRNA levels (% baseline value) after treatment with R1881” value in the series with AR mRNA (ASO 0.04 μM) came to 88 % baseline value; in the series on AR mRNA (ASO 0.20 μM) it was 56 % baseline value; in the series with AR mRNA (ASO 1.0 μM), 25 % baseline value; in the series on AR mRNA (ASO 5.0 μM), 32 % baseline value. In addition, the “AR mRNA levels (% baseline value) of cells without AR agonist treatment” value is recorded as 101 % baseline value in the series on AR mRNA (ASO 0.04 μM), 75 % baseline value with AR mRNA (ASO 0.20 μM), 30 % baseline value with AR mRNA (ASO 1.0 μM) and 25 % baseline value with AR mRNA (ASO 5.0 μM). In addition, the “Percent inhibition of full-length AR mRNA in C4-2B MR cells” value was found to be 41% with total AR mRNA (0.04 μM), 78% in the series on total AR mRNA (0.20 μM), 94% with total AR mRNA (1.00 μM) and 97% in the series with total AR mRNA (5.00 μM).

For the substance “GTTGATTTAATGGTTG (all phosphorothioate, sugars by position not given here; further chemistry not fully specified) [ISIS 549458]”, the “PSA mRNA levels in LMR20 cells” value in series [1] (with or without DHT/R1881) is “reduced PSA levels and TMPRSS2 more extensively than the LNA gapmer ISIS 554221 or MDV3100”. In addition, the “AR mRNA levels in LMR20 cells” value in the series on AR mRNA (with or without DHT/R1881) is listed as “reduced AR mRNA levels in LMR20 cells, treated with or without either AR agonist, in a dose dependent manner relative to the baseline”. For the same substance, in the series with total AR mRNA (C4-2B MR cells, 0.04-5.00 μM free uptake), the “total AR transcript levels” value was “reduced total AR transcript levels in a dose dependent manner more extensively than treatment with ISIS 554221”.
